In patent publication US4370331A, “L-Glaucine containing composition for cough relief” (Karl O. Helm Aktiengesellschaft, priority 1977, dated 1983):
Values joined by “and” are separate entries in the source; they are usually repeats but may differ in a detail not shown here. Equal values may be shown once. Where a name gives a salt, the structure may show the parent alone. Read-outs that look alike come from different tables or passages of the source.

Experiments:
cough pulses [1] = assay: Oral citric acid aerosol cough test in guinea pigs, time course 1-24 h, Comparative test 6; assay type: in vivo; settings: for Cough pulses during 8 minutes, percent of control value, after 1 h / Cough pulses during 8 minutes, percent of control value, after 3 h / Cough pulses during 8 minutes, percent of control value, after 5 h / Cough pulses during 8 minutes, percent of control value, after 24 h: codeine phosphate 75, d,l-glaucine hydrobromide 150, hydrochloride 135, embonate 378 mg/kg
Description: In a further comparative test, 40 female guinea pigs with body weights between 230 and 500 g were divided into 4 groups and each animal was again subjected to the action of a 20% citric acid aerosol for 8 minutes. From the control values thus obtained the average control value for each group was calculated. Each animal of each group was then given, by means of a throat probe, either 75 mg/kg of codeine phosphate, or 135 mg/kg of d,l-glaucine hydrochloride, or 150 mg/kg of d,1-glaucine hydrobromide, or 378 mg/kg of d,l-glaucine embonate. These doses are the equimolar quantities, based on glaucine. After a period of 1, or 3, or 5, or 24 hours each animal was again subjected for 8 minutes to the action of the citric acid aerosol, and the number of cough pulses during this period was recorded. The values thus obtained were compared with the control values and the percent deviation of the average measured value for each group, from the average control value, was calculated.

[2] = tested on: isolated guinea pig intestines (contractions induced by electric voltages); assay: Suppression of electrically induced contractions in isolated guinea pig intestines, Comparative test 4; settings: isolated guinea pig intestine; codeine: increased doses; d-glaucine: higher concentrations than 4×10^-5; d,l-glaucine: 4×10^-5 to 6×10^-5
[3] = tested on: isolated guinea pig intestines (contractions induced by electric voltages); assay: as above; design: electrically induced contractions (Table III): unit not given here
Description: In a further series of tests the effects of different doses of codeine phosphate in suppressing contractions induced in isolated guinea pig intestines by electric voltages were tested. For this purpose one electrode was immersed in the solution surrounding the intestinal preparation. The second electrode was connected to the preparation at the attachment point.

cough pulses [4] = assay: Citric acid aerosol cough test in guinea pigs, subcutaneous, 30 min (method of Friebel and Reichle), Comparative test 1; assay type: in vivo; settings: s.c.; for ED50: Cavia porcellus, sc, 0.5 h, 30 min after administering, 20% citric acid aerosol, 8 min
Description: In order to compare the anti-cough effectiveness of codeine phosphate with the effectiveness of the different isomers of glaucine hydrobromide, the testing method of Friebel and Reichle was used. 60 guinea pigs with weights between 200 and 300 g were divided up into ten groups of different sizes. Before administering the active substance, each animal was subjected, on the same day as the day of test with the active substance, for a period of 8 minutes to an aerosol of 20% citric acid, the animal being confined in a chamber at constant air pressure. During this control test the number of cough pulses was counted with the help of a pressure transmitter. From these measurements an average control value for each group was calculated. After this preliminary control test, there was given subcutaneously to each animal of each group a suspension of the active substance in 1% sodium carboxymethyl cellulose. After 30 minutes each animal was again exposed in the test chamber for 8 minutes to the aerosol of 20% citric acid and the number of cough pressure pulses recorded. The different active substances were administered in increasing doses ranging from 3 mg/kg to 100 mg/kg of body weight. Altogether eight different doses were given. The results were expressed as percent deviation from the average control value for the group on the same day, the deviation being entered in a diagram against the logarithm of the dose administered. From the resulting effectiveness curve, based on the logarithm of the dose, the coefficient of correlation and the ED50 were calculated for each active substance, by the regression analysis method of Downie and Heath (1965). The values obtained for codeine phosphate, for d-glaucine hydrobromide, for d,l-glaucine hydrobromide and for l-glaucine hydrobromide thirty minutes after administering the active substance are summarized in Table I.

coughing centre = assay: Coughing reflex by electrical stimulation of upper laryngeal nerves of anaesthetized cats (method of Domenjoz), Comparative test 5; assay type: in vivo; settings: intravenous; for minimal effective dose: Felis catus, read-out: MED (minimal effective dose completely suppressing the coughing reflex); for minimal effective dose / Duration of cough suppression: anaesthetized cats; for Duration of cough suppression: at MED
Description: In a series of tests conducted by the method of Domenjoz, the effects of the different active substances on the coughing centre was examined by electrical stimulation of the upper laryngeal nerves of anaesthetized cats. Electrical stimulation of the nerve produces a coughing reflex and the intention is to reduce this by intravenous injection of the active substance. The minimal effective dose MED is determined by increasing the dose from 0.1 mg/kg of body weight up to 0.3 mg/kg, 1.0 mg/kg, 3.0 mg/kg and 6.0 mg/kg, until the dose is sufficient for completely suppressing the coughing reflex.
In these tests each animal was given, on the one hand, codeine and, on the other hand, at sufficient time intervals also glaucine, so that the ratio of the minimal effective doses of glaucine and codeine can be deduced.

cough pulses [5] = assay: Oral citric acid aerosol cough test in guinea pigs, 1 h (equivalent effective doses), Comparative test 6; assay type: in vivo; settings: for Cough pulses percent of control value: 20% citric acid aerosol 8 min
mice = assay: Toxicity (LD50) in mice by the Wilcox method, Comparative test 7; assay type: in vivo; settings: hydrobromide
Description: (§1) The toxicity thresholds of codeine phosphate, of d-glaucine hydrobromide and of d,l-glaucine hydrobromide were determined in mice by the Wilcox method. […] The toxicities of codeine phosphate and d,l-glaucine hydrobromide are about equal.

[6] = as above; assay type: in vivo; settings: mouse, in vivo
Description: as §1

[7] = tested on: smooth muscles of isolated guinea pigs intestine; assay: Effect on smooth muscles of isolated guinea pig intestine in a bath, Comparative test 3; settings: for spontaneous activity and tone, in words: molar concentrations between 1×10^-5 and 8×10^-5
Description: Experiments were conducted in vitro to determine the effects of different active substances on the smooth muscles of isolated guinea pigs intestine samples suspended in a bath. After adding to the bath different doses of the active substances, the contractive force of the muscle material was recorded.

intestinal motility = assay: Intestinal motility / evacuation action of stomach-intestinal tract of mice (carbon suspension), Comparative test 2; assay type: in vivo; settings: s.c., 2 h, control 74.3%, * = significantly different from control (p < 0.05)
Excerpt: One of the most unpleasant side effects of anti-cough medicine containing codeine is constipation and the occurrence of intestinal spasms. A model test for determining the effects of anti-cough active substances on intestinal motility and on the evacuation action of the stomach-intestinaltract of mice was therefore made. After subcutaneous injection of the active substance, each animal was given, through a throat probe, a 10% suspension of carbon in a 5% aqueous slurry of gum arabic. Two hours later the intestine was sectioned and the distance of stomach coecum measured, and also the distance travelled by the carbon, which was expressed as percent of intestine length.
The effects of codeine phosphate, of d-glaucine hydrobromide and of l-glaucine hydrobromide on intestinal motility were determined at different doses. For each dose the average value was calculated for a sufficient number of animals.

[8] = po, peroral, read-out: LD50 peroral
[9] = sc, subcutaneous, read-out: LD50 subcutaneous

COc1cc2c(cc1OC)-c1c(OC)c(OC)cc3c1C(C2)N(C)CC3 (racemic) [d,l-glaucine embonate]
Cough pulses during 8 minutes, percent of control value, after 1 h (cough pulses [1]): 80%
Cough pulses during 8 minutes, percent of control value, after 3 h (cough pulses [1]): 51%
Cough pulses during 8 minutes, percent of control value, after 5 h (cough pulses [1]): 57%
Cough pulses during 8 minutes, percent of control value, after 24 h (cough pulses [1]): 81%
duration of effect, in words (cough pulses [1]; guinea pigs, 378 mg/kg): considerably longer-lasting effect without any delay in the beginning of the effect

COc1cc2c(cc1OC)-c1c(OC)c(OC)cc3c1C(C2)N(C)CC3 (racemic) [d,l-glaucine hydrobromide]
Cough pulses during 8 minutes, percent of control value, after 1 h (cough pulses [1]; hydrobromide): 90%
Cough pulses during 8 minutes, percent of control value, after 3 h (cough pulses [1]; hydrobromide): 47%
Cough pulses during 8 minutes, percent of control value, after 5 h (cough pulses [1]; hydrobromide): 59%
Cough pulses during 8 minutes, percent of control value, after 24 h (cough pulses [1]; hydrobromide): 113%
induced spontaneous activity, in words [2]: without at the same time inducing any spontaneous activity
suppression of electrically induced spasms, in words ([3]; 4×10^-5 to 6×10^-5): suppress the electrically induced spasms practically completely
electrically induced contractions (Table III) ([3]; molar concentration 1 × 10^-5): 63
electrically induced contractions (Table III) ([3]; molar concentration 2 × 10^-5): 48
electrically induced contractions (Table III) ([3]; molar concentration 4 × 10^-5): 8
electrically induced contractions (Table III) ([3]; molar concentration 4 × 10^-6): 81
electrically induced contractions (Table III) ([3]; molar concentration 8 × 10^-6): 63
ED50 (cough pulses [4]): 27.2 mg/kg
ED50 value, comparison in words (cough pulses [4]; 30 min): even lower ED50 value than l-glaucine hydrobromide
minimal effective dose (coughing centre): 1 mg/kg
Duration of cough suppression (coughing centre): 44 to 62 min
duration of the effect, in words (coughing centre; at minimal dose): considerably greater for the d,l-glaucine hydrobromide than for the d-glaucine hydrobromide
Cough pulses percent of control value (cough pulses [5]; 100 mg/kg): 30%
Cough pulses percent of control value (cough pulses [5]; 200 mg/kg): 44%
dose having about the same effect (codeine phosphate vs d,l-glaucine hydrobromide) (cough pulses [5]; guinea pigs): ~150 mg per kg of body weight
toxicity, comparison in words (mice): about equal
LD50 [6, 8]: 686 mg/kg
LD50 [6, 9]: 320 mg/kg

COc1cc2c(cc1OC)-c1c(OC)c(OC)cc3c1C(C2)N(C)CC3 (racemic) [d,l-glaucine hydrochloride]
Cough pulses during 8 minutes, percent of control value, after 1 h (cough pulses [1]; hydrochloride): 80%
Cough pulses during 8 minutes, percent of control value, after 3 h (cough pulses [1]; hydrochloride): 72%
Cough pulses during 8 minutes, percent of control value, after 5 h (cough pulses [1]; hydrochloride): 69%
Cough pulses during 8 minutes, percent of control value, after 24 h (cough pulses [1]; hydrochloride): 102%

COc1ccc2c3c1O[C@H]1[C@@H](O)C=C[C@H]4[C@@H](C2)N(C)CC[C@@]341 [codeine, reference compound]
contractive force of the muscle material, in words ([7]; molar concentrations between 1×10^-5 and 32×10^-5): produces contractions which depend on the dose

COc1cc2c(cc1OC)-c1c(OC)c(OC)cc3c1[C@H](C2)N(C)CC3 [d-glaucine hydrobromide, reference compound]
induced spontaneous activity, in words [2]: the increasing spontaneous activity prevents any distinguishing between direct production and electric production of the activity
suppression of electrically induced contraction reflexes, in words ([3]; 4×10^-5): suppresses electrically induced contraction reflexes
electrically induced contractions (Table III) ([3]; molar concentration 1 × 10^-5, hydrobromide): 77 and 95
electrically induced contractions (Table III) ([3]; molar concentration 2 × 10^-5, hydrobromide): 74 and 79
electrically induced contractions (Table III) ([3]; molar concentration 4 × 10^-5, hydrobromide): 44 and 36
ED50 (cough pulses [4]): 54 mg/kg
minimal effective dose (coughing centre): 1 mg/kg
Duration of cough suppression (coughing centre): 5 to 39 min
Distance travelled average % (of intestine length) (intestinal motility; 10 mg/kg): 74.6%
Distance travelled average % (of intestine length) (intestinal motility; 30 mg/kg): 80.1%
Distance travelled average % (of intestine length) (intestinal motility; 100 mg/kg): 36.4%
LD50 [6, 8]: 345 mg/kg
LD50 [6, 9]: 125 mg/kg

COc1cc2c(cc1OC)-c1c(OC)c(OC)cc3c1[C@H](C2)N(C)CC3 [d-glaucine, reference compound]
spontaneous activity and tone, in words [7]: dose-dependent increase of spontaneous activity and tone

COc1cc2c(cc1OC)-c1c(OC)c(OC)cc3c1[C@@H](C2)N(C)CC3 [l-glaucine]
spasmogenic activity ([7]; in vitro, isolated guinea pig intestine): no spasmogenic activity
spontaneous activity and tone, in words [7]: a reduction in spontaneous activity and no increase in tone
